From ChEMBL document CHEMBL4725255, “Broad assessment of bioactivity of a collection of spiroindane pyrrolidines through "cell painting"” (Bioorg Med Chem, 2020) come the findings set out here.

The source made the active and inactive calls. The calls are words filed in the database; no cut-off is given here.

In the assay the test system is U2OS. The experiment in a line: Cytotoxicity against human U-2 OS cells assessed as change in cell morphology incubated for 24 hrs at […] measured after various levels of staining by micro XL microscopic-imaging analysis. Format: functional, cell-based.

For the compound `N#CC1Cc2ccccc2C12CCCN2` (stereo in doubt; 14), the outcome was inactive. In the case of `COCCOC(=O)N1CCCC12CCc1ccc(C#CCO)cc12` (stereo not given) it was “Active”; in that of `N#CC1Cc2ccccc2C12CCCN2` (stereo in doubt; 1), “Active”; in that of `N#C[C@@H]1C[C@H]2[C@H]3[C@@H]1C=C[C@]32C1=NCCC1`, “Active”.

`COc1ccc(-c2ccc3c(c2)C2(CCCN2)C(C#N)C3)cc1` (stereo not given): the outcome was inactive.
